Results: patent EP4667483A1, “HUMAN TRANSFERRIN RECEPTOR-BINDING PEPTIDE” (JCR Pharmaceuticals Co., Ltd., priority 2023, dated 2024)
Bridge positions count the residues as written; N and C are the ends. Square brackets hold non-standard residues; d marks the D form. Peptide text beside a SMILES is read from it. * marks the point of attachment. Trp(1-CH2COOH) = N[C@@H](Cc1cn(CC(=O)O)c2ccccc12)C(=O)O; NMePhe(4-COOH) = CN[C@@H](Cc1ccc(C(=O)O)cc1)C(=O)O; Nle(6-morpholino) = N[C@@H](CCCCN1CCOCC1)C(=O)O; Phe(3-COOH) = N[C@@H](Cc1cccc(C(=O)O)c1)C(=O)O; Trp(7-aza) = N[C@@H](Cc1c[nH]c2ncccc12)C(=O)O; NMePhe(3-Cl) = CN[C@@H](Cc1cccc(Cl)c1)C(=O)O; Trp(1-Me) = Cn1cc(C[C@H](N)C(=O)O)c2ccccc21; 3Pal(6-NH2) = Nc1ccc(C[C@H](N)C(=O)O)cn1; NMeW = CN[C@@H](Cc1c[nH]c2ccccc12)C(=O)O; Lys(N3) = [N-]=[N+]=NCCCC[C@H](N)C(=O)O; NMeY = CN[C@@H](Cc1ccc(O)cc1)C(=O)O; Nva(3-Et) = CCC(CC)[C@H](N)C(=O)O; NMeF = CN[C@@H](Cc1ccccc1)C(=O)O; 4Pal = N[C@@H](Cc1ccncc1)C(=O)O; PEG4 = NCCOCCOCCOCCOCCC(=O)O; Carboxymethyl = O=C(O)C*; NH(CH2)3NH2 = NCCCN*

Columns and labels:
[1] = target: T1, human transferrin receptor (hTfR) (Homo sapiens, UniProt P02786); test: SPR measurement under pH 7.4 conditions (Biacore T200, CM3 chip, hTfR captured by His Tag antibody); format: binding; conditions: read-out: hTfR SPR pH7.4 KD
[2] = target: T1, human transferrin receptor (hTfR); test: SPR measurement under pH 6.0 conditions (Biacore T200, NTA chip, immobilized hTfR); format: binding; conditions: read-out: hTfR SPR pH6.0 KD
[3] = SPR, pH 7.4, peptide with the linker named in the table
[4] = SPR, pH 6.0, peptide with the linker named in the table

T1 sequence (P02786 whole entry): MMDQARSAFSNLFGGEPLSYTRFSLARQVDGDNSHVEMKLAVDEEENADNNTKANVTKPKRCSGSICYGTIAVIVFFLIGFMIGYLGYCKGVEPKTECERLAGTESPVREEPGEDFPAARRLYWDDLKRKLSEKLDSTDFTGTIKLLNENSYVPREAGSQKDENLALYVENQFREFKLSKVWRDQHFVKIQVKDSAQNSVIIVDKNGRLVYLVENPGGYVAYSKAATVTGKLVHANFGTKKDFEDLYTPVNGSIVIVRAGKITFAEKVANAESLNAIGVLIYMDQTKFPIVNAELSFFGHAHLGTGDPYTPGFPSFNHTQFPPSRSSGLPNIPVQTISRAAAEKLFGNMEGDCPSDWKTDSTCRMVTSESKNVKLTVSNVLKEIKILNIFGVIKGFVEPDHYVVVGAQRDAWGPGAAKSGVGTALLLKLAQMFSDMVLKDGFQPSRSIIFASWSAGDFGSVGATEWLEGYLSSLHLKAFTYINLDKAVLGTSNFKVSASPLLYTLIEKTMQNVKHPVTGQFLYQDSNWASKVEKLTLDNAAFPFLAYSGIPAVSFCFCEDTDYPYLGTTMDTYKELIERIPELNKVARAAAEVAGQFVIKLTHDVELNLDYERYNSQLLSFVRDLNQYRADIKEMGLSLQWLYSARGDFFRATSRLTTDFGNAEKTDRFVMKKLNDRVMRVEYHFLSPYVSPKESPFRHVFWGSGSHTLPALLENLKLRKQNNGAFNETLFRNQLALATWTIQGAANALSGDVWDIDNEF

In the case of CC[C@H](C)[C@@H]1NC(=O)[C@H](Cc2ccc(OCC(=O)O)cc2)NC(=O)[C@H](Cc2ccc(N)nc2)NC(=O)[C@H](CC(N)=O)NC(=O)[C@H](Cc2c[nH]c3ccccc23)NC(=O)[C@H](C(C)C)NC(=O)[C@H](Cc2cccc(Cl)c2)N(C)C(=O)[C@H](C(C)C)NC(=O)[C@H](C)NC(=O)CSC[C@@H](C(=O)NCC(=O)N[C@@H](CCCCN=[N+]=[N-])C(N)=O)NC(=O)[C@H](Cc2ccc(O)cc2)N(C)C(=O)[C@H](Cc2cccc(C(=O)O)c2)NC(=O)[C@H](CCCNC(=N)N)NC(=O)[C@H](CCC(N)=O)NC(=O)[C@H]([C@@H](C)CC)NC1=O [compound 149], the Kd [1, 3] is reported as 3.57 nM and the Kd [2, 4] is reported as 28.1 nM.

For CCC(CC)[C@@H]1NC(=O)[C@H](Cc2ccc(O)cc2)NC(=O)[C@H](Cc2ccc(N)nc2)NC(=O)[C@H](CC(N)=O)NC(=O)[C@H](Cc2c[nH]c3ccccc23)N(C)C(=O)[C@H](C(C)C)NC(=O)[C@H](Cc2ccccc2)N(C)C(=O)[C@H](C(C)C)NC(=O)[C@H](C)NC(=O)CSC[C@@H](C(=O)NCC(=O)N[C@@H](CCCCN=[N+]=[N-])C(N)=O)NC(=O)[C@H](Cc2ccc(C(=O)O)cc2)N(C)C(=O)[C@H](Cc2ccc(O)cc2)NC(=O)[C@H](CCCNC(=N)N)NC(=O)[C@H](CCCCN)NC(=O)[C@H]([C@@H](C)CC)NC1=O [compound 187] ({CH2CO}-AV[NMeF]V[NMeW]N[3Pal(6-NH2)]Y[Nva(3-Et)]IKRY[NMePhe(4-COOH)]CG[Lys(N3)]-NH2; thioether N-15), the Kd ([1]; SPR, pH 7.4, Table 1-3-2-2) was 9.9 nM and the Kd ([2]; SPR, pH 6.0, Table 1-3-2-2) was 30.7 nM.

CC[C@H](C)[C@@H]1NC(=O)[C@H](Cc2ccc(OCC(=O)N3CCN(CC(=O)O)CC3)cc2)NC(=O)[C@H](Cc2ccc(O)cc2)NC(=O)[C@H](CC(N)=O)NC(=O)[C@H](Cc2cn(CC(=O)O)c3ccccc23)NC(=O)[C@H](C(C)C)NC(=O)[C@H](Cc2cccc(Cl)c2)N(C)C(=O)[C@H](C(C)C)NC(=O)[C@H](C)NC(=O)CSC[C@@H](C(=O)NCCOCCOCCOCCOCCC(N)=O)NC(=O)[C@H](Cc2ccc(O)cc2)N(C)C(=O)[C@H](Cc2cccc(C(=O)O)c2)NC(=O)[C@H](CCCNC(=N)N)NC(=O)[C@H](CCC(N)=O)NC(=O)[C@H]([C@@H](C)CC)NC1=O [compound 36] showed a Kd ([1]; pH 7.4, single-cycle kinetics) of 2.47 nM and a Kd ([2]; pH 6.0, single-cycle kinetics) of 44 nM.

CC[C@H](C)[C@@H]1NC(=O)[C@H](Cc2ccc(OCC(=O)N3CCN(CC(=O)O)CC3)cc2)NC(=O)[C@H](Cc2ccc(O)cc2)NC(=O)[C@H](CC(N)=O)NC(=O)[C@H](Cc2cn(CC(=O)O)c3ccccc23)NC(=O)[C@H](C(C)C)NC(=O)[C@H](Cc2cccc(Cl)c2)N(C)C(=O)[C@H](C(C)C)NC(=O)[C@H](C)NC(=O)CSC[C@@H](C(=O)NCCOCCOCCOCCOCCC(N)=O)NC(=O)[C@H](Cc2ccc(O)cc2)N(C)C(=O)[C@H](Cc2ccncc2)NC(=O)[C@H](CCCCN2CCOCC2)NC(=O)[C@H](CCC(N)=O)NC(=O)[C@H]([C@@H](C)CC)NC1=O [compound 25] was tested, and the Kd ([1]; pH 7.4, single-cycle kinetics) was 3.35 nM and the Kd ([2]; pH 6.0, single-cycle kinetics) was 57.9 nM.

CC[C@H](C)[C@@H]1NC(=O)[C@H](Cc2ccc(OC)cc2)NC(=O)[C@H](Cc2ccc(O)cc2)NC(=O)[C@H](CC(N)=O)NC(=O)[C@H](Cc2cn(C)c3ccccc23)NC(=O)[C@H](C(C)C)NC(=O)[C@H](Cc2cccc(Cl)c2)N(C)C(=O)[C@H](C(C)C)NC(=O)[C@H](C)NC(=O)CSC[C@@H](C(=O)NCCOCCOCCOCCOCCC(N)=O)NC(=O)[C@H](Cc2ccc(O)cc2)N(C)C(=O)[C@H](Cc2ccncc2)NC(=O)[C@H](CCCNC(=N)N)NC(=O)[C@H](CCCCN)NC(=O)[C@H]([C@@H](C)CC)NC1=O [compound 130] showed a Kd [1, 3] of 0.678 nM and a Kd [2, 4] of 1.74 nM.

With CC[C@H](C)[C@@H]1NC(=O)[C@H](Cc2ccc(OC)cc2)NC(=O)[C@H](Cc2ccc(N)nc2)NC(=O)[C@H](CC(N)=O)NC(=O)[C@H](Cc2c[nH]c3ccccc23)NC(=O)[C@H](C(C)C)NC(=O)[C@H](Cc2cccc(Cl)c2)N(C)C(=O)[C@H](C(C)C)NC(=O)[C@H](C)NC(=O)CSC[C@@H](C(=O)NCCOCCOCCOCCOCCC(N)=O)NC(=O)[C@H](Cc2ccc(O)cc2)N(C)C(=O)[C@H](Cc2ccncc2)NC(=O)[C@H](CCCNC(=N)N)NC(=O)[C@H](CCCCN)NC(=O)[C@H]([C@@H](C)CC)NC1=O [compound 57] ({CH2CO}-AV[NMePhe(3-Cl)]VWN[3Pal(6-NH2)]Y(Me)IIKR[4Pal][NMeY]C[PEG4]-NH2; thioether N-15) the Kd ([1]; pH 7.4, single-cycle kinetics) was 0.971 nM and the Kd ([2]; pH 6.0, single-cycle kinetics) was 5.4 nM.

With CC[C@H](C)[C@@H]1NC(=O)[C@H](Cc2ccc(OC)cc2)NC(=O)[C@H](Cc2ccc(N)nc2)NC(=O)[C@H](CC(N)=O)NC(=O)[C@H](Cc2c[nH]c3ncccc23)NC(=O)[C@H](C(C)C)NC(=O)[C@H](Cc2cccc(Cl)c2)N(C)C(=O)[C@H](C(C)C)NC(=O)[C@H](C)NC(=O)CSC[C@@H](C(=O)NCCOCCOCCOCCOCCC(N)=O)NC(=O)[C@H](Cc2ccc(O)cc2)N(C)C(=O)[C@H](Cc2ccncc2)NC(=O)[C@H](CCCNC(=N)N)NC(=O)[C@H](CCC(=O)NCCOCCOCCOCCOCCOCCOCCOCCOC)NC(=O)[C@H]([C@@H](C)CC)NC1=O [compound 11] the Kd ([1]; pH 7.4, single-cycle kinetics) was 7.1 nM and the Kd ([2]; pH 6.0, single-cycle kinetics) was 110 nM.

For CC[C@H](C)[C@@H]1NC(=O)[C@H](Cc2ccc(OC)cc2)NC(=O)[C@H](Cc2ccc(N)nc2)NC(=O)[C@H](CC(N)=O)NC(=O)[C@H](Cc2c[nH]c3ncccc23)NC(=O)[C@H](C(C)C)NC(=O)[C@H](Cc2cccc(Cl)c2)N(C)C(=O)[C@H](C(C)C)NC(=O)[C@H](C)NC(=O)CSC[C@@H](C(=O)NCC(=O)N[C@@H](CCCCN=[N+]=[N-])C(N)=O)NC(=O)[C@H](Cc2ccc(O)cc2)N(C)C(=O)[C@H](Cc2ccncc2)NC(=O)[C@H](CCCCN2CCOCC2)NC(=O)[C@H](CCCCN2CCOCC2)NC(=O)[C@H]([C@@H](C)CC)NC1=O [compound 68] ({CH2CO}-AV[NMePhe(3-Cl)]V[Trp(7-aza)]N[3Pal(6-NH2)]Y(Me)II[Nle(6-morpholino)][Nle(6-morpholino)][4Pal][NMeY]CG[Lys(N3)]-NH2; thioether N-15), the Kd ([1]; pH 7.4, single-cycle kinetics) was 2.06 nM and the Kd ([2]; pH 6.0, single-cycle kinetics) was 12.4 nM.

CCC(CC)[C@@H]1NC(=O)[C@H](Cc2ccc(OC)cc2)NC(=O)[C@H](Cc2ccc(O)cc2)NC(=O)[C@H](CC(N)=O)NC(=O)[C@H](Cc2cn(C)c3ccccc23)NC(=O)[C@H](C(C)C)NC(=O)[C@H](Cc2cccc(Cl)c2)N(C)C(=O)[C@H](C(C)C)NC(=O)[C@H](C)NC(=O)CSC[C@@H](C(=O)NCCOCCOCCOCCOCCC(N)=O)NC(=O)[C@H](Cc2ccc(O)cc2)N(C)C(=O)[C@H](Cc2ccncc2)NC(=O)[C@H](CCCNC(=N)N)NC(=O)[C@H](CCCCN)NC(=O)[C@H]([C@@H](C)CC)NC1=O [compound 128] ({CH2CO}-AV[NMePhe(3-Cl)]V[Trp(1-Me)]NYY(Me)[Nva(3-Et)]IKR[4Pal][NMeY]C[PEG4]-NH2; thioether N-15) showed a Kd [1, 3] of 1.1 nM and a Kd [2, 4] of 3.23 nM.

With CCC(CC)[C@@H]1NC(=O)[C@H](Cc2ccc(OCC(=O)O)cc2)NC(=O)[C@H](Cc2ccc(O)cc2)NC(=O)[C@H](CC(N)=O)NC(=O)[C@H](Cc2cn(CC(=O)O)c3ccccc23)NC(=O)[C@H](C(C)C)NC(=O)[C@H](Cc2cccc(Cl)c2)N(C)C(=O)[C@H](C(C)C)NC(=O)[C@H](C)NC(=O)CSC[C@@H](C(=O)NCCOCCOCCOCCOCCC(N)=O)NC(=O)[C@H](Cc2ccc(O)cc2)N(C)C(=O)[C@H](Cc2cccc(C(=O)O)c2)NC(=O)[C@H](Cc2c[nH]cn2)NC(=O)[C@H](CCC(N)=O)NC(=O)[C@H]([C@@H](C)CC)NC1=O [compound 98] ({CH2CO}-AV[NMePhe(3-Cl)]V[Trp(1-CH2COOH)]NYY(Carboxymethyl)[Nva(3-Et)]IQH[Phe(3-COOH)][NMeY]C[PEG4]-NH2; thioether N-15) the Kd [1, 3] was 20.6 nM and the Kd [2, 4] was 145 nM.

Compound CC[C@H](C)[C@@H]1NC(=O)[C@H](Cc2ccc(OC)cc2)NC(=O)[C@H](Cc2ccc(N)nc2)NC(=O)[C@H](CC(N)=O)NC(=O)[C@H](Cc2c[nH]c3ccccc23)N(C)C(=O)[C@H](C(C)C)NC(=O)[C@H](Cc2cccc(Cl)c2)N(C)C(=O)[C@H](C(C)C)NC(=O)[C@H](C)NC(=O)CSC[C@@H](C(=O)NCCOCCOCCOCCOCCC(N)=O)NC(=O)[C@H](Cc2ccc(O)cc2)N(C)C(=O)[C@H](Cc2ccccc2)NC(=O)[C@H](CCCNC(=N)N)NC(=O)[C@H](CCC(=O)NCCCN)NC(=O)[C@H]([C@@H](C)CC)NC1=O [compound 172] ({CH2CO}-AV[NMePhe(3-Cl)]V[NMeW]N[3Pal(6-NH2)]Y(Me)IIE(NH(CH2)3NH2)RF[NMeY]C[PEG4]-NH2; thioether N-15) has a Kd ([1]; pH 7.4, single-cycle kinetics) of 0.215 nM and a Kd ([2]; pH 6.0, single-cycle kinetics) of 2.59 nM.

CC[C@H](C)[C@@H]1NC(=O)[C@H](Cc2ccc(OCC(=O)N3CCN(CC(=O)O)CC3)cc2)NC(=O)[C@H](Cc2ccc(O)cc2)NC(=O)[C@H](CC(N)=O)NC(=O)[C@H](Cc2cn(CC(=O)O)c3ccccc23)NC(=O)[C@H](C(C)C)NC(=O)[C@H](Cc2cccc(Cl)c2)N(C)C(=O)[C@H](C(C)C)NC(=O)[C@H](C)NC(=O)CSC[C@@H](C(=O)NCCOCCOCCOCCOCCC(N)=O)NC(=O)[C@H](Cc2ccc(O)cc2)N(C)C(=O)[C@H](Cc2ccncc2)NC(=O)[C@H](CCCCN2CCOCC2)NC(=O)[C@H](CCC(=O)NCCOCCOCCOCCOCCOCCOCCOCCOC)NC(=O)[C@H]([C@@H](C)CC)NC1=O [compound 22] was tested, and the Kd ([1]; pH 7.4, single-cycle kinetics) was 4.11 nM and the Kd ([2]; pH 6.0, single-cycle kinetics) was 205 nM.

Work on CCC(CC)[C@@H]1NC(=O)[C@H](Cc2ccc(O)cc2)NC(=O)[C@H](Cc2ccc(N)nc2)NC(=O)[C@H](CC(N)=O)NC(=O)[C@H](Cc2c[nH]c3ccccc23)N(C)C(=O)[C@H](C(C)C)NC(=O)[C@H](Cc2cccc(Cl)c2)N(C)C(=O)[C@H](C(C)C)NC(=O)[C@H](C)NC(=O)CSC[C@@H](C(=O)NCCOCCOCCOCCOCCC(N)=O)NC(=O)[C@H](Cc2ccc(O)cc2)N(C)C(=O)[C@H](Cc2ccc(O)cc2)NC(=O)[C@H](CCCNC(=N)N)NC(=O)[C@H](CCCCN)NC(=O)[C@H]([C@@H](C)CC)NC1=O [compound 134] ({CH2CO}-AV[NMePhe(3-Cl)]V[NMeW]N[3Pal(6-NH2)]Y[Nva(3-Et)]IKRY[NMeY]C[PEG4]-NH2; thioether N-15) yielded a Kd [1, 3] of 4.58 nM and a Kd [2, 4] of 3.95 nM.
